Values of other authors, collected in US8273706B2, “Isobarically labeled analytes and fragment ions derived therefrom” (DH Technologies Development Pte. Ltd., priority 2004, dated 2012).

Details: alcohol (leaving group) whose trifluoroacetate ester forms the active ester of N-methyl piperazine acetic acid

For `Oc1c(Cl)c(Cl)c(Cl)c(Cl)c1Cl` [Pcp, pentachlorophenol], the pKa is listed as 4.68.

In the case of `O=C1CCC(=O)N1O` [NHS, N-hydroxysuccinimide], the pKa is listed as 7.80.

In the case of `O=[N+]([O-])c1cccc(O)c1` [3-NP, 3-nitrophenol], the pKa is given as 8.33.

In the case of `O=C1CCCN1O` [NHP, N-hydroxypyrrolidinone], the pKa is given as 9.38.

In the case of `O=c1c2ccccc2nnn1O` [Dhbt, 3-hydroxy-1,2,3-benzotriazine-4(3H)-one], the pKa is given as 7.78.
